Test results published in US20250064904A1 (priority 2019, published 2025).

Key:
[1] = test system: salivary glands (submandibular, parotid); design: species or system human; conditions: in vivo
salivary glands = conditions: in vivo; cited from earlier work

Substance: botulinum toxin type A
- uptake of 18F-PSMA in the treated glands [1]: significantly reduced
- uptake of 68Ga-PSMA in the glands treated with botulinum toxin [1]: significantly reduced
- uptake of 177Lu-PSMA in the treated glands [1]: significantly reduced
- uptake of 225Ac-PSMA-617 in the treated glands [1]: significantly reduced
- onset of action (salivary glands): around six
